Assay results from ChEMBL document CHEMBL4665648, “Potent and selective inhibitors of receptor-interacting protein kinase 1 that lack an aromatic back pocket group” (Bioorg Med Chem Lett, 2019).

Assays:
[1] = molecular target: Calcium/calmodulin-dependent protein kinase type II subunit alpha (Homo sapiens) (UniProt Q9UQM7); experiment: Inhibition of recombinant human His-tagged full length CAMK2alpha expressed in baculovirus expression system using Ser/Thr 04 as substrate at 10 uM incubated for 60 mins by Z'-Lyte assay relative to control
[2] = molecular target: Protein-tyrosine kinase 6 (Homo sapiens) (UniProt Q13882); experiment: Inhibition of recombinant human His-tagged full length BRK expressed in baculovirus expression system using Tyr 01 as substrate at 10 uM incubated for 60 mins by Z'-Lyte assay relative to control
[3] = Inhibition of necroptosis in mouse L929 cells assessed as reduction in TNFalpha/BV6/zVAD-fmk-induced cell death incubated for 18 hrs by Cell Titer Glo luminescent cell viability assay; type: functional, cell-based; settings: L929, 18 h
[4] = molecular target: Dual specificity tyrosine-phosphorylation-regulated kinase 3 (Homo sapiens) (UniProt O43781); experiment: Inhibition of recombinant human GST-tagged full length DYRK3 expressed in baculovirus expression system using Ser/Thr 9 as substrate at 10 uM incubated for 60 mins by Z'-Lyte assay relative to control
[5] = molecular target: Mitogen-activated protein kinase kinase kinase 10 (Homo sapiens) (UniProt Q02779); experiment: Inhibition of tracer 236 binding to recombinant human GST-tagged full length MLK2 expressed in baculovirus expression system at 10 uM incubated for 60 mins by Lanthascreen assay relative to control
[6] = molecular target: Tyrosine-protein kinase Tec (Homo sapiens) (UniProt P42680); experiment: Inhibition of tracer 178 binding to recombinant human His-tagged full length TEC expressed in baculovirus expression system at 10 uM incubated for 60 mins by Lanthascreen assay relative to control
Tyrosine-protein kinase Tec (Homo sapiens), sequence (P42680 whole entry): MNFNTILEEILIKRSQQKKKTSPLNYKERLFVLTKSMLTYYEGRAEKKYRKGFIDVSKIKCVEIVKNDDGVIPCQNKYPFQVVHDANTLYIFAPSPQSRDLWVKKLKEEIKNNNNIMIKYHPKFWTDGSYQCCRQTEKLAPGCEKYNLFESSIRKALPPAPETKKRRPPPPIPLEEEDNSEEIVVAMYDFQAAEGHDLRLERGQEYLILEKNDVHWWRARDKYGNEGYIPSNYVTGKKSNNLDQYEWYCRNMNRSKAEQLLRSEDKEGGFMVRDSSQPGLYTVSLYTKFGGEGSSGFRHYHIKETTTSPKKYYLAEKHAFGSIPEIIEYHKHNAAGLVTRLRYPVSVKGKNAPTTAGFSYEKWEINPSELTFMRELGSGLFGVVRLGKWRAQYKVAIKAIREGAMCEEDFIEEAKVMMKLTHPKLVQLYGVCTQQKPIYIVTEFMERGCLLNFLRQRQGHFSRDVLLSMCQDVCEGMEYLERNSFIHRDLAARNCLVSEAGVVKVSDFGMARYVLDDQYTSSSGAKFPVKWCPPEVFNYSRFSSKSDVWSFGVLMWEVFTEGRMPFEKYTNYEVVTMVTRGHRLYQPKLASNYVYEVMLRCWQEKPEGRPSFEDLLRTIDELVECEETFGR

[7] = molecular target: Tyrosine-protein kinase ITK/TSK (Homo sapiens) (UniProt Q08881); experiment: Inhibition of recombinant human GST-tagged full length ITK expressed in baculovirus expression system using Tyr 04 as substrate at 10 uM incubated for 60 mins by Z'-lyte assay relative to control
Tyrosine-protein kinase ITK/TSK (Homo sapiens), sequence (Q08881 whole entry): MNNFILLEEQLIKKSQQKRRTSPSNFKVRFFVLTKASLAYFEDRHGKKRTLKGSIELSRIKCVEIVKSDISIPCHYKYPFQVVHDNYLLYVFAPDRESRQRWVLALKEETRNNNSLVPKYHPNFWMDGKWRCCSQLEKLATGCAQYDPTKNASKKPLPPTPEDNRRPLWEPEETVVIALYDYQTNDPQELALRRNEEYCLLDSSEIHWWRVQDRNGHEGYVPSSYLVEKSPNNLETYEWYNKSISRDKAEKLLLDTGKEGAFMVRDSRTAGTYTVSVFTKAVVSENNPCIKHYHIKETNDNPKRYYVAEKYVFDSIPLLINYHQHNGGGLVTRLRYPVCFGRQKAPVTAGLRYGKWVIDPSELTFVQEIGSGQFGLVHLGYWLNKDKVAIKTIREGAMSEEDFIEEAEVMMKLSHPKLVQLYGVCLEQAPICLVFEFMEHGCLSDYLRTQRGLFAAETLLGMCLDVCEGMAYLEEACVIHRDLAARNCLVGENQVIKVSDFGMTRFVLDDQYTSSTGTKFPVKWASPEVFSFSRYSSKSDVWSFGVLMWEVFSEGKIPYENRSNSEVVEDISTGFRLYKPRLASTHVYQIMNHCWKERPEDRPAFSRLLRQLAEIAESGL

[8] = Volume of distribution in Sprague-Dawley rat at 0.5 mg/kg, iv or 2 mg/kg, po; type: ADME, organism-based; settings: in vivo
[9] = molecular target: Casein kinase I isoform alpha (Homo sapiens) (UniProt P48729); experiment: Inhibition of recombinant human GST-tagged full length CK1alpha1 expressed in baculovirus expression system using Ser/Thr 11 as substrate at 10 uM incubated for 60 mins by Z'-Lyte assay relative to control
Casein kinase I isoform alpha (Homo sapiens), sequence (P48729 whole entry, looked up, the tested form may be a part, canonical isoform): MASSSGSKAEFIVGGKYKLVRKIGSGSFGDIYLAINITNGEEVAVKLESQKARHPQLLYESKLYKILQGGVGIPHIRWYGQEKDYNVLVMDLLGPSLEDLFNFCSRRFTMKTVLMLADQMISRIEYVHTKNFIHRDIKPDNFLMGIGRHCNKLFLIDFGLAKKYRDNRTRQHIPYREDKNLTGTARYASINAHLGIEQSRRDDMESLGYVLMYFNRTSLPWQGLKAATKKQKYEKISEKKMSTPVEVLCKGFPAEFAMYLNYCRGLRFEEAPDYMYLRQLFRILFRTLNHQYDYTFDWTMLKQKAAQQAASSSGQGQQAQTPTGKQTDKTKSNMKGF

[10] = molecular target: Serine/threonine-protein kinase Sgk3 (Homo sapiens) (UniProt Q96BR1); experiment: Inhibition of recombinant human GST-tagged full length SGK3 (87 to 496 residues) expressed in baculovirus expression system using Ser/Thr 06 as substrate at 10 uM incubated for 60 mins by Z'-Lyte assay relative to control
Serine/threonine-protein kinase Sgk3 (Homo sapiens), sequence (Q96BR1 whole entry, the tested form may be a part): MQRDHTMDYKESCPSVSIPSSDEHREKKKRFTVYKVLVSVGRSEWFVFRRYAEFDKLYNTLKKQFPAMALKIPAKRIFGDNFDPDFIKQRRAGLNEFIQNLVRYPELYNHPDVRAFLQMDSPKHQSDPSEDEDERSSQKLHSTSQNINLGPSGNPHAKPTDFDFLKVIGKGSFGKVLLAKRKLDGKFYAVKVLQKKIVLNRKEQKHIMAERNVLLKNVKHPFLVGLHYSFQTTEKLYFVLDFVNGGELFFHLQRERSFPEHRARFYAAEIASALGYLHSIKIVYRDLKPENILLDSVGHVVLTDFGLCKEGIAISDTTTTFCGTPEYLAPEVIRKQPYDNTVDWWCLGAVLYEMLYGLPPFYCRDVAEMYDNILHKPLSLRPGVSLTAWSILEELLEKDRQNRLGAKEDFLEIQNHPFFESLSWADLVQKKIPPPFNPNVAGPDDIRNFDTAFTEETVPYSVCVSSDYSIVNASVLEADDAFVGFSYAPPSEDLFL

[11] = molecular target: Protein kinase C epsilon type (Homo sapiens) (UniProt Q02156); experiment: Inhibition of recombinant human GST-tagged full length PKCepsilon expressed in insect expression system using Ser/Thr 07 as substrate at 10 uM incubated for 60 mins by Z'-lyte assay relative to control
[12] = molecular target: TGF-beta receptor type-1 (Homo sapiens) (UniProt P36897); experiment: Inhibition of tracer 178 binding to recombinant human N-terminal GST-tagged TGFBR1 (200 to 503 residues) expressed in baculovirus expression system at 10 uM incubated for 60 mins by Lanthascreen assay relative to control
[13] = molecular target: Serine/threonine-protein kinase PAK 3 (Homo sapiens) (UniProt O75914); experiment: Inhibition of recombinant human His-tagged full length PAK3 expressed in baculovirus expression system using Ser/Thr 20 as substrate at 10 uM incubated for 60 mins by Z'-lyte assay relative to control
[14] = molecular target: Interleukin-1 receptor-associated kinase 4 (Homo sapiens) (UniProt Q9NWZ3); experiment: Inhibition of recombinant human His-tagged full length IRAK4 expressed in baculovirus expression system using Ser/Thr 07 as substrate at 10 uM incubated for 60 mins by Z'-Lyte assay relative to control
[15] = molecular target: Glycogen synthase kinase-3 beta (Homo sapiens) (UniProt P49841); experiment: Inhibition of recombinant human N-terminal GST-tagged full length GSK3beta expressed in baculovirus expression system using Ser/Thr 09 as substrate at 10 uM incubated for 60 mins by Z'-Lyte assay relative to control
Glycogen synthase kinase-3 beta (Homo sapiens), sequence (P49841 whole entry, looked up): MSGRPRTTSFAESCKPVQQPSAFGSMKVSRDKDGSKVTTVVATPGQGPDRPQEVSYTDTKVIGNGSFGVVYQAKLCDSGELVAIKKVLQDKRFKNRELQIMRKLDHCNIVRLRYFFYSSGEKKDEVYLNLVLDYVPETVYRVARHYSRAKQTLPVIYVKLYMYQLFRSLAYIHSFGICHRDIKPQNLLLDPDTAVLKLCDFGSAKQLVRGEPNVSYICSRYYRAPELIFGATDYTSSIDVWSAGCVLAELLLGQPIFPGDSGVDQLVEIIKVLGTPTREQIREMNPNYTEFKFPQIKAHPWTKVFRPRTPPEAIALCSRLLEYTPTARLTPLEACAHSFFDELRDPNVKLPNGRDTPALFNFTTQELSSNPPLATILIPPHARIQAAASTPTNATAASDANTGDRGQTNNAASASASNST

[16] = molecular target: CDK2/Cyclin A2 (Homo sapiens) (UniProt P24941+P20248); experiment: Inhibition of recombinant human His-tagged full length CDK2/Cyclin A expressed in baculovirus expression system using Ser/Thr 12 as substrate at 10 uM incubated for 60 mins by Z'-Lyte assay relative to control
[17] = molecular target: Glycogen synthase kinase-3 alpha (Homo sapiens) (UniProt P49840); experiment: Inhibition of recombinant human GST-tagged full length GSK3alpha expressed in baculovirus expression system using Ser/Thr 09 as substrate at 10 uM incubated for 60 mins by Z'-Lyte assay relative to control
[18] = molecular target: Tyrosine-protein kinase receptor UFO (Homo sapiens) (UniProt P30530); experiment: Inhibition of recombinant human GST-tagged full length AXL expressed in insect expression system using Tyr 06 as substrate at 10 uM incubated for 60 mins by Z'-Lyte assay relative to control
[19] = molecular target: LIM domain kinase 1 (Homo sapiens) (UniProt P53667); experiment: Inhibition of tracer 236 binding to recombinant human His-tagged LIMK1 (285 to 638 residues) expressed in baculovirus expression system at 10 uM incubated for 60 mins by Lanthascreen assay relative to control
[20] = molecular target: Tyrosine-protein kinase JAK3 (Homo sapiens) (UniProt P52333); experiment: Inhibition of recombinant human GST-tagged JAK3 (781 to 1124 residues) expressed in baculovirus expression system using Tyr 06 as substrate at 10 uM incubated for 60 mins by Z'-lyte assay relative to control
Tyrosine-protein kinase JAK3 (Homo sapiens), sequence (P52333 whole entry, the tested form may be a part): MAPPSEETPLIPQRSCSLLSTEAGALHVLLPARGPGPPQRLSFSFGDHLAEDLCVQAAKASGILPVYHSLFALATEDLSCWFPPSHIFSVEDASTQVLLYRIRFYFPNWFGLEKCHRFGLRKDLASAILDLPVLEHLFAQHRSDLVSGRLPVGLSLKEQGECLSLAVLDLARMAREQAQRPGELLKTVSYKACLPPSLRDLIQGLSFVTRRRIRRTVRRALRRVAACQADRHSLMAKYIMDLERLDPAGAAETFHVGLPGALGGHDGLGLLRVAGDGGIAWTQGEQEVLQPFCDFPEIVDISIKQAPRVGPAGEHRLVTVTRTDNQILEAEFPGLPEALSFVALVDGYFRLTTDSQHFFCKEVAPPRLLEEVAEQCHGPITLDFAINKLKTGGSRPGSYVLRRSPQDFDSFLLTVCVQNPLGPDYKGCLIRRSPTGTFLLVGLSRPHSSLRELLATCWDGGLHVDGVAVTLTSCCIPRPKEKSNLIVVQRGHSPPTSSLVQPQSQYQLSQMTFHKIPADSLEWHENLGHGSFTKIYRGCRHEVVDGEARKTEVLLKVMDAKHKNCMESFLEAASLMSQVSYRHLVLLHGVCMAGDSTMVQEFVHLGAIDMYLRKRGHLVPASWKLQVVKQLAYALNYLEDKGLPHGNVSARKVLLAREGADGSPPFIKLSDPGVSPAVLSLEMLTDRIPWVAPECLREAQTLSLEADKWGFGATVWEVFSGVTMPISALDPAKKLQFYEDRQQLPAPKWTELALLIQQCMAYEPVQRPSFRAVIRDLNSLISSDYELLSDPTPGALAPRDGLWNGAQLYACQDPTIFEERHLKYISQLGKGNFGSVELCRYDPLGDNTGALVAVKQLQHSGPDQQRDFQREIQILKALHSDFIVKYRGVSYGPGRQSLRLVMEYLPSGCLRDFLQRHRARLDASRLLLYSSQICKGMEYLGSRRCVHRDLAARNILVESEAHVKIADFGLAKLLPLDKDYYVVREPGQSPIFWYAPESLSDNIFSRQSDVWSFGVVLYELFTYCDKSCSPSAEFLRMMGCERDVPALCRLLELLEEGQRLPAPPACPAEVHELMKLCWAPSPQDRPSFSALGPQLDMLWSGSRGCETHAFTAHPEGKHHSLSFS

[21] = molecular target: Ribosomal protein S6 kinase beta-1 (Homo sapiens) (UniProt P23443); experiment: Inhibition of recombinant human GST-tagged p70S6K (1 to 421 residues) expressed in baculovirus expression system using Ser/Thr 07 as substrate at 10 uM incubated for 60 mins by Z'-Lyte assay relative to control
[22] = molecular target: Epithelial discoidin domain-containing receptor 1 (Homo sapiens) (UniProt Q08345); experiment: Inhibition of tracer 178 binding to recombinant human GST-tagged DDR1 (440 to 876 residues ) expressed in baculovirus expression system at 10 uM incubated for 60 mins by Lanthascreen assay relative to control
Epithelial discoidin domain-containing receptor 1 (Homo sapiens), sequence (Q08345 whole entry, the tested form may be a part): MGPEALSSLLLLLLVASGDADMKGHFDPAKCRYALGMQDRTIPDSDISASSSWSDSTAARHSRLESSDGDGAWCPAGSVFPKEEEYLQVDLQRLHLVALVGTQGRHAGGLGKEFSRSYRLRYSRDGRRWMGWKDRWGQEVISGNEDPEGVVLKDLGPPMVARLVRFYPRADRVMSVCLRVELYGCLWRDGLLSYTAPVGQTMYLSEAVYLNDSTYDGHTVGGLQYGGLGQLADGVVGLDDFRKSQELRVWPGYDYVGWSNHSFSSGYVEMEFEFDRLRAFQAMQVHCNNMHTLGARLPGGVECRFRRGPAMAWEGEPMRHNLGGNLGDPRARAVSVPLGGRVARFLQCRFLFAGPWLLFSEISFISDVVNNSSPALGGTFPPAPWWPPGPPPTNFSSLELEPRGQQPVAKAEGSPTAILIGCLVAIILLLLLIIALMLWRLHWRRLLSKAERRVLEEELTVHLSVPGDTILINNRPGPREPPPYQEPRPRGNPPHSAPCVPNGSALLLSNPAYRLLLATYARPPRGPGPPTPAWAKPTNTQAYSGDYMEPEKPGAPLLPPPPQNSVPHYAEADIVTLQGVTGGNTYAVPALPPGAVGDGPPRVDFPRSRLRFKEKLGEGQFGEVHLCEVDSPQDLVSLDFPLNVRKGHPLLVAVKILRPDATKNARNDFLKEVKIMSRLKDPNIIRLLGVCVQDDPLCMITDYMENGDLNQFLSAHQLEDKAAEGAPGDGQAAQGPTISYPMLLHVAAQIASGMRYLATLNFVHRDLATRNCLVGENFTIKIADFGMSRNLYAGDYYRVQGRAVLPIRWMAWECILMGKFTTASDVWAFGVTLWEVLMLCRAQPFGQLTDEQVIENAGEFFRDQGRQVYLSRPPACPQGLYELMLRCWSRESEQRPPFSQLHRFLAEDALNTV

[23] = molecular target: G protein-coupled receptor kinase 3 (Homo sapiens) (UniProt P35626); experiment: Inhibition of recombinant human GST-tagged full length GRK3 expressed in baculovirus expression system using Ser/Thr 16 as substrate at 10 uM incubated for 60 mins by Z'-Lyte assay relative to control
[24] = molecular target: Calcium/calmodulin-dependent protein kinase kinase 1 (Homo sapiens) (UniProt Q8N5S9); experiment: Inhibition of tracer 236 binding to recombinant human GST-tagged full length CAMKK1 expressed in Escherichia coli expression system at 10 uM incubated for 60 mins by Lanthascreen assay relative to control
Calcium/calmodulin-dependent protein kinase kinase 1 (Homo sapiens), sequence (Q8N5S9 whole entry, looked up): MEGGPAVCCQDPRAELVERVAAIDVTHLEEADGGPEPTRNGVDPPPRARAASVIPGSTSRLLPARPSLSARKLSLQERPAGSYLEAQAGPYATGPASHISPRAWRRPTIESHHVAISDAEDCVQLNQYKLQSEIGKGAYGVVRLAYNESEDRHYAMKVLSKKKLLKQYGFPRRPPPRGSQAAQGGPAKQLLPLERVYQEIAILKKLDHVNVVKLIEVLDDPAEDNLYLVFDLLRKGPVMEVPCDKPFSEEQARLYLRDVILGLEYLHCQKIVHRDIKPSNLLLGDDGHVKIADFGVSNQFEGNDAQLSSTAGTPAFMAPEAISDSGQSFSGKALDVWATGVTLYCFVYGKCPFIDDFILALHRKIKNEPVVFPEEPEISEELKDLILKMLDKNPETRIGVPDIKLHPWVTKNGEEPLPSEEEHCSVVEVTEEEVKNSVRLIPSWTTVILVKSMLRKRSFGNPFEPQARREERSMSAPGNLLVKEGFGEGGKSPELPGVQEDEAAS

[25] = molecular target: Protein kinase C beta type (Homo sapiens) (UniProt P05771); experiment: Inhibition of recombinant human His-tagged full length PKCbeta1 expressed in insect expression system using Ser/Thr 07 as substrate at 10 uM incubated for 60 mins by Z'-lyte assay relative to control

With `CN1C(=O)[C@@H](NC(=O)c2n[nH]c3ncc(C(F)(F)C(F)(F)F)cc23)COc2ccccc21` the inhibition [1] was 1%, the inhibition [2] was 0.5% and the EC50 [3] was 11 µM. For the same compound, the inhibition [4] was 7%, the inhibition [5] was 13.5% and the inhibition [6] was -4.5%. For the same compound, the inhibition [7] was -2%, the Vd [8] was 2.8 L/kg and the inhibition [9] was 1.5%. The inhibition [10] was 0.5%, the inhibition [11] was -6% and the inhibition [12] was -4.5%. The inhibition [13] was 8%, the inhibition [14] was 6.5% and the inhibition [15] was 14.5%. It also gave an inhibition [16] of 13%, an inhibition [17] of 9% and an inhibition [18] of 6.5%. It also gave an inhibition [19] of 5%, an inhibition [20] of 1.5% and an inhibition [21] of 6.5%. It also gave an inhibition [22] of 7%, an inhibition [23] of 2.5% and an inhibition [24] of -5%. The inhibition [25] was 5.5%.
